One test deals with T1, Human MCT2 (Homo sapiens, UniProt O60669).
T1 construct: expressed in transfected cells
T1 sequence (O60669 1-478): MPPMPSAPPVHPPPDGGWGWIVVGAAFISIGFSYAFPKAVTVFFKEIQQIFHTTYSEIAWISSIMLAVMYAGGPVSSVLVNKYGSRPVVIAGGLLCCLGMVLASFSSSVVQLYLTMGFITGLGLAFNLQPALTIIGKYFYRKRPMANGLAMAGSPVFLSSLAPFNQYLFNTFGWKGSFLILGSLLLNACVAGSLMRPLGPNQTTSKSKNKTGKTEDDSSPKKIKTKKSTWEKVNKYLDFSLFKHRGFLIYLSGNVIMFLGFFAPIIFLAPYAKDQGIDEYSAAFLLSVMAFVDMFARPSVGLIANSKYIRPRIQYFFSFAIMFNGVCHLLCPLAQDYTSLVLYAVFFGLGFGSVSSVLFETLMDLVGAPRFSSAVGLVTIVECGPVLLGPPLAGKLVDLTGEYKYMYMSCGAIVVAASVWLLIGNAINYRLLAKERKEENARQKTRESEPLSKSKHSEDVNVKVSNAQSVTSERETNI
The test can be described thus: Inhibition of 3BP import (rescue of viability) in MCT2-overexpressing INS-1 cells. The class given is cell-based. The settings on record: INS-1 cells over-expressing human MCT2, rescue from LC100 3BP. On the procedure: (§1) Human MCT1-4 were stably expressed in INS-1 rat pancreatic islet B-cells, which are deficient in endogenous MCT expression. 3-Bromopyruvate (3BP), a highly reactive and cytotoxic monocarboxylate, can enter the INS-1 cells via the overexpressed MCT isoform, resulting in rapid cell death. However, prevention of 3BP transport into the cell by an MCT inhibitor can prevent 3BP-mediated cell death (FIG. 16).
(§2) INS-1 cells over-expressing an MCT paralog were treated with a titration of 3BP to determine the lowest concentration that results in 100% cell killing (LC100). The INS-1 cells were then pre-treated with a titration of Compound 67A before exposure to the LC100 concentration of 3BP specific for that MCT-over-expressing cell line, and rescue of cell viability was measured (FIG. 17).

A further test addresses T2, MCT1/BSG complex (Homo sapiens, UniProt P53985).
T2 sequence (P53985 1-500): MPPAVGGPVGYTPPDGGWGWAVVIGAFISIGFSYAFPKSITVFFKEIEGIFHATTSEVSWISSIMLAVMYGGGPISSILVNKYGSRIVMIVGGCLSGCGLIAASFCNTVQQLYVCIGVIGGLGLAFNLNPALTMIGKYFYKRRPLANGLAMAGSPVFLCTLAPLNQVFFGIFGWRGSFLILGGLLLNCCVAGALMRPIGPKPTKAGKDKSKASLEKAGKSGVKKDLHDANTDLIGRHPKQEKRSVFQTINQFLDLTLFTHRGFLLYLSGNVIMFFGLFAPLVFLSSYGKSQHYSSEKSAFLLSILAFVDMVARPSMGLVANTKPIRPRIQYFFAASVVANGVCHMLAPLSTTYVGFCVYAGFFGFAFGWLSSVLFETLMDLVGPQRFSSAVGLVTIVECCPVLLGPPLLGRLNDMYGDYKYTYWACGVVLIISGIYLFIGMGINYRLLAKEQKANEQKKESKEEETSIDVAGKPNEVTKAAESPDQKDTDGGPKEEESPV
T2 sequence (P35613 140-385 partner limits assumed): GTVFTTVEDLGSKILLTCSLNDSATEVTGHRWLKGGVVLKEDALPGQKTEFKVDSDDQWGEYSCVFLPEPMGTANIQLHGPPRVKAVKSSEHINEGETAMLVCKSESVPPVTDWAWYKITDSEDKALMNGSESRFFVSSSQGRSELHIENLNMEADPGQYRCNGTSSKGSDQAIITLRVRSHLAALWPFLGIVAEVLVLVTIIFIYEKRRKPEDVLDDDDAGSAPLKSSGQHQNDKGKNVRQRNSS
The test can be described thus: Microscale thermophoresis (MST) direct binding. The settings on record: purified hexahistidine-tagged MCT1/BSG complex, read-out: Kd, binding to MCT1/basigin. An excerpt:
Microscale thermophoresis (MST) monitors the solution phase change in protein fluorescence and mobility in response to a temperature gradient created with an infrared laser. The method is compatible with detergent solubilized proteins and enables measurement of direct ligand binding.
Purified hexahistidine-tagged MCT1/BSG complex was mixed with a hexahistidine interacting fluorescent dye and MST was monitored as a function of compound concentration.
(In MST a laser heats a spot of the sample, and binding alters the fluorescence response.)

A further test deals with T3, Human MCT4 (Homo sapiens, UniProt O15427).
T3 construct: expressed in transfected cells
T3 sequence (O15427 2-465 limits assumed): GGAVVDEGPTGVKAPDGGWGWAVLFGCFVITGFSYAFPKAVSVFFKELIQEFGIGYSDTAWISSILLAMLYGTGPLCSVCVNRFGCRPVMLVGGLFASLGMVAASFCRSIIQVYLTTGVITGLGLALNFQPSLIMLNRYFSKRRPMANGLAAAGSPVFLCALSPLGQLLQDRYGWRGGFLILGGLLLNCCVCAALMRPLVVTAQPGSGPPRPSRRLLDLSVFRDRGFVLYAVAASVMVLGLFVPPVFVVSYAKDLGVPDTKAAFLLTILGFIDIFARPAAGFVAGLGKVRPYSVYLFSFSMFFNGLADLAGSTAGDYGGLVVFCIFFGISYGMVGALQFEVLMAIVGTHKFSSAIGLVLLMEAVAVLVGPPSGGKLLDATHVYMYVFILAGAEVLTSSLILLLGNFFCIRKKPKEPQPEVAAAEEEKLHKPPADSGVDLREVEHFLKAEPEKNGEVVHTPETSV
T3 sequence (P26453 23-388 partner): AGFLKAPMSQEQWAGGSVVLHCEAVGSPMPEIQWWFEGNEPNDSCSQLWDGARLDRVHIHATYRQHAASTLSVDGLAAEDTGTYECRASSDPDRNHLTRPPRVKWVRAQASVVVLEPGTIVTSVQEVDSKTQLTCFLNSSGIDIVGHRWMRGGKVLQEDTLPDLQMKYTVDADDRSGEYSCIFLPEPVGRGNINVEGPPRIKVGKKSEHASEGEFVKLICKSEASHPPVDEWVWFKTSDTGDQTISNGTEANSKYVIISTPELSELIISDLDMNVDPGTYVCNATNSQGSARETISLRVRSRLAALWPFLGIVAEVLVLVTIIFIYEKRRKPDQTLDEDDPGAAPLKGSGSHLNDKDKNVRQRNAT
The test can be described thus: Inhibition of 3BP import (rescue of viability) in MCT4-overexpressing INS-1 cells. The test is classed as cell-based. The conditions noted are these: INS-1 cells over-expressing human MCT4, rescue from LC100 3BP. On the procedure:
as §1, §2

A further test has as its system T47D. Put plainly: Compound 67A sensitivity / cell growth inhibition of CRISPR screen cell line T47D. The test is classed as cell-based. The source says:
(§3) Three cell lines with varying sensitivities to Compound 67A were utilized in the CRISPR screen (Table 3, FIG. 11).
Screen hits (FDR<0.2) were identified using the drugZ algorithm (FIG. 13). MCT4 was the most significant hit consistent between the SU8686 and T47D cell lines, sensitizing both lines to Compound 67A treatment.

Another test concerns SU8686. The test can be described thus: Compound 67A sensitivity of CRISPR screen cell line SU8686. The test is classed as cell-based. The conditions noted are these: Homo sapiens, SU.86.86; SU8686, Pancreatic Cancer.
Excerpt: as §3

By IC50 is commonly meant the concentration that inhibits the measured activity by half. Lower therefore signals greater potency. With `CC(C)OC(=O)Nc1ccc(-c2cnc([C@H]3CC[C@H](NC(=O)OC(C)C)CC3)s2)c(S(=O)(=O)NC(C)(C)C)c1` [Compound 67A], the IC50 on Human MCT2 was greater than 33 µM; against Human MCT4, 1 to 10 µM; in the test on T47D (Homo sapiens, T47D, Breast Cancer), 5.86 µM; in the test with SU8686, greater than 20 µM. The Kd at MCT1/BSG complex was 0.089 µM. Moreover, the “effect of MCT4 knockout on cell growth inhibition” value in the test with T47D (T47D cells, MCT4 knockout) is “enhanced Compound 67A-mediated cell growth inhibition”.
Regarding `O=C(Nc1ccccc1C(=O)O)c1cc(S(=O)(=O)c2ccccc2)ccc1Cl` [BAY8002], the IC50 is 1 to 10 µM on Human MCT2 and greater than 33 µM against Human MCT4.
For AZD3965, in that order: 1 to 10 µM and greater than 33 µM.
